One assay relates to MU melanoma cells. As to the kind of experiment: Differentiation of melanoma cells (morphology). In kind it is cell-based, human. Particulars: 72 hrs with 5 μM SU11274. As to the method:
Thus SU11274 could induce a differentiated phenotype in a wide variety of melanoma cells melanized, amelanotic, less and more differentiated melanoma cells.
The effect of si RNA against c-Met was also studied on the proliferation and differentiation of MU melanoma cells. […] SU11274 at 5 μM and 10 μM inhibited the growth of melanoma cells by 72% and 88% respectively. The inhibitory effect of SU11274 was more pronounced than si RNA since SU11274 is a potent and selective inhibitor of c-Met activity and function. […] Similar to SU11274 c-Met Si RNA 12 hrs after transfection induced an increase in MITF (4 fold) and several of the melanocyte differentiation antigens tyrosinase (4-fold), gp-100 (2-fold) and MART-1 (2-fold) which have been targets for immunotherapy. The increase in the level of various differentiation proteins was determined by densiometric anaylsis after treatment with c-Met si RNA.

Assay [1] concerns melanoma cell lines that expressed c-Met. The assay can be described thus: Cell growth analysis (cell counting). Particulars: Homo sapiens; 96 hrs, MEM with 10% serum. In kind it is cell-based. As to the method:
For measuring the effect of SU11274 on growth of melanoma cells, MM-AN, MU, PM-WK, MM-RU, MM-MC and RPM-EP cells were plated at 6×10^4 cells in 60 mm dishes in MEM with 10% serum. After 24 hrs different concentrations of SU11274 were added and after 96 hrs cells were trypsinized and counted in a cell counter (Beckman Coulter). Each data point was repeated in triplicate.

In assay [2] the test system is c-Met phosphorylation in SCCHN cell lines. The assay can be described thus: c-Met phosphorylation and downstream signaling after HGF stimulation. In kind it is cell-based, human.
For assay [3], the system named is reactive oxygen species (ROS) in MU melanoma cells. As to the kind of experiment: Reactive oxygen species measurement by DHE immunofluorescence. In kind it is cell-based, human. Particulars: 5 μM SU11274 for 12 hrs; HGF 40 ng/ml. As to the method: 5×10^4 MU melanoma cells were plated in 35 mm petri dishes. After 24 hrs MU Melanoma cells were kept in serum free media containing 0.5% BSA with and without 5 μM SU11274 for 12 hrs. Cells were treated with 40 ng/ml HGF for 7.5 min, then treated with DHE 10 μM (molecular probes Inc, Eugene, Oreg.) for 30 min, after which they were visualized under a fluorescent Olympus microscope IX81, 20× objective, ND3 and Rhodamine filter sets. Fluorescence was then quantified using Image J and graphed.
The endogenous levels of reactive oxygen species (ROS) was also analyzed in MU melanoma cells with and without HGF treatment using DHE by fluorescence microscopy. DHE is a redox sensitive probe that has widely been used to detect intracellular superoxide anion. The relative levels of ROS were increased in response to HGF by 47%, and SU11274 decreased the ROS response to HGF to 3%.

Another assay has as its system MM-AN cells. The assay can be described thus: Apoptosis by propidium iodide FACS (sub G0/G1). In kind it is cell-based, human. How it is done: MM-AN, MU, PM-WK, MM-RU, MM-MC, MM-LH and RPM-EP melanoma cells were grown in MEM (Cellgro, Hernon, Va.) with 10% FBS (Gemini Bioproducts, Woodland, Calif.). Triplicate melanoma cell cultures were grown in MEM with 10% FBS and treated with a final concentration of 5-10 μM of SU11274 or an equal volume of diluent (DMSO) as a control for 96 hrs. Cells were collected, stained with propidium iodide and analyzed with a Becton Dickinson FACS Scan and Cell Quest software.
SU11274, which is a highly specific inhibitor of c-Met, was tested on the six melanoma cell lines. […] By 96 hrs between 12 to 58% of cells in different melanoma cell lines appeared in the sub G0/G1 region of the FACS profile indicating apoptosis.

A word on the IC50: it is the concentration at which inhibition is half-maximal. Low readings indicate inhibition by little substance, high ones a need for much substance.

In the case of `Cc1[nH]c(/C=C2\C(=O)Nc3ccc(S(=O)(=O)N(C)c4cccc(Cl)c4)cc32)c(C)c1C(=O)N1CCN(C)CC1` [SU11274, (3Z)-N-(3-chlorophenyl)-3-({3,5-dimethyl-4-[(4-methylpiperazin-1-yl)carbonyl]-1H-pyrrol-2-yl}methylene)-N-methyl-2-oxo-2,3-dihydro-1H-indole-5-sulfonamide], the “change in morphology / differentiated phenotype” value in the assay with MU melanoma cells was “became very dendritic and differentiated”. The molecule also gave an IC50 in assay [1] of 1000 to 2500 nM. Also, the c-Met phosphorylation entry in assay [2] (all cell lines tested, HGF stimulation) is “Marked inhibition”. For the same molecule, the “downstream phosphorylation of SHP2, AKT, ERK” value in assay [2] (degree varied by cell line) is “affected downstream phosphorylation of SHP2, AKT, and to a lesser degree ERK”. Also, in assay [3], the “ROS response to HGF” value is 3%. In the assay with MM-AN cells, the apoptosis result is recorded as “No apoptosis could be detected”.

The values above are taken from patent US20100062441A1, “C-MET MUTATIONS AND USES THEREOF” (priority 2007, published 2010).
